What all share (assay): relative viability (nuclei count vs DMSO), 5 days (fraction); higher = more cells survive
Compound in experiment [1]: O=C(O)c1ccc2c(c1)nc(Nc1cccc(Cl)c1)c1ccncc12 [Silmitasertib] + COc1cccc2cc(-c3nc([C@H]4CC[C@H](C(=O)O)CC4)n4ncnc(N)c34)[nH]c12 [OSI-027] (partner 0.5 µM)
A digest of the protocol: (§1)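 Relative viability was taken as the ratio of nuclei in treated wells to nuclei in vehicle wells. Lung cancer cell lines in 1536-well plates received compounds by pin tool one day after seeding, either one drug alone or a fixed anchor-drug dose plus five library-drug doses (not always all listed) in √10 steps. Nuclei were counted on 4× images after 5 days of treatment, and values are medians of duplicate plates.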

Compound in experiment [2]: O=C(O)c1ccc2c(c1)nc(Nc1cccc(Cl)c1)c1ccncc12 [Silmitasertib] + COc1cc2c(Oc3ccc(NC(=O)C4(C(=O)Nc5ccc(F)cc5)CC4)cc3F)ccnc2cc1OCCCN1CCOCC1 [Foretinib] (partner 0.25 µM)
The method in brief:
as §1

Compound in experiment [3]: O=C(O)c1ccc2c(c1)nc(Nc1cccc(Cl)c1)c1ccncc12 [Silmitasertib] + Cc1cc(Nc2cc(N3CCN(C)CC3)nc(Sc3ccc(NC(=O)C4CC4)cc3)n2)n[nH]1 [Tozasertib] (partner 0.1 µM)
The method in brief:
as §1

Compound in experiment [4]: O=C(O)c1ccc2c(c1)nc(Nc1cccc(Cl)c1)c1ccncc12 [Silmitasertib] + CC1(C)CCC(c2ccc(Cl)cc2)=C(CN2CCN(c3ccc(C(=O)NS(=O)(=O)c4ccc(N[C@H](CCN5CCOCC5)CSc5ccccc5)c(S(=O)(=O)C(F)(F)F)c4)cc3)CC2)C1 [Navitoclax] (partner 0.5 µM)
A digest of the protocol:
as §1

Compound in experiment [5]: O=C(O)c1ccc2c(c1)nc(Nc1cccc(Cl)c1)c1ccncc12 [Silmitasertib] + Nc1nc2[nH]cc(CCc3ccc(C(=O)N[C@@H](CCC(=O)O)C(=O)O)cc3)c2c(=O)[nH]1 [Pemetrexed] (partner 0.2 µM)
The method in brief:
as §1

Experimental findings from the supplement of paper PMC10307832 are described below.

Take SK-MES-1: the relative viability in experiment [1] (first compound 0.04 µM) was determined as 0.675; in experiment [1] (first compound 0.4 µM) it was 0.558; in experiment [1] (first compound 1.265 µM), 0.435; in experiment [1] (first compound 4 µM) it was 0.236; in experiment [2] (first compound 0.04 µM), 1.12; in experiment [2] (first compound 0.4 µM), 0.885. The relative viability stood at 0.946 in experiment [2] (first compound 1.265 µM); 0.535 in experiment [2] (first compound 4 µM); 1.07 in experiment [3] (first compound 0.04 µM); 1.02 in experiment [3] (first compound 0.4 µM); 0.542 in experiment [3] (first compound 1.265 µM); 0.159 in experiment [3] (first compound 4 µM). The relative viability stood at 1.27 in experiment [4] (first compound 0.04 µM); 1.1 in experiment [4] (first compound 0.4 µM); 1.15 in experiment [4] (first compound 1.265 µM); 0.576 in experiment [4] (first compound 4 µM); 1.03 in experiment [5] (first compound 0.04 µM); 1.02 in experiment [5] (first compound 0.4 µM). For the same cell line, the relative viability worked out at 0.763 in experiment [5] (first compound 1.265 µM) and 0.339 in experiment [5] (first compound 4 µM).
For SW 1573, the relative viability amounted to 0.648 in experiment [1] (first compound 0.04 µM); 0.616 in experiment [1] (first compound 0.4 µM); 0.548 in experiment [1] (first compound 1.265 µM); 0.319 in experiment [1] (first compound 4 µM); 0.882 in experiment [2] (first compound 0.04 µM); 0.801 in experiment [2] (first compound 0.4 µM). Further, the relative viability in experiment [2] (first compound 1.265 µM) amounted to 0.744; in experiment [2] (first compound 4 µM) it was 0.202; in experiment [3] (first compound 0.04 µM), 0.199; in experiment [3] (first compound 0.4 µM), 0.185; in experiment [3] (first compound 1.265 µM) it was 0.231; in experiment [3] (first compound 4 µM), 0.187. For the same cell line, the relative viability in experiment [4] (first compound 0.04 µM) came to 1.07; in experiment [4] (first compound 0.4 µM), 1.02; in experiment [4] (first compound 1.265 µM) it was 0.824; in experiment [4] (first compound 4 µM), 0.815; in experiment [5] (first compound 0.04 µM) it was 1.11; in experiment [5] (first compound 0.4 µM), 0.875. Further, the relative viability is 0.89 in experiment [5] (first compound 1.265 µM) and 0.697 in experiment [5] (first compound 4 µM).
Turning to UMC-11, the relative viability in experiment [1] (first compound 0.04 µM) was determined as 0.491; in experiment [1] (first compound 0.4 µM), 0.485; in experiment [1] (first compound 1.265 µM) it was 0.438; in experiment [1] (first compound 4 µM), 0.402; in experiment [2] (first compound 0.04 µM) it was 1.19; in experiment [2] (first compound 0.4 µM), 1.16. The relative viability is 1.11 in experiment [2] (first compound 1.265 µM); 0.619 in experiment [2] (first compound 4 µM); 0.199 in experiment [3] (first compound 0.04 µM); 0.218 in experiment [3] (first compound 0.4 µM); 0.184 in experiment [3] (first compound 1.265 µM); 0.16 in experiment [3] (first compound 4 µM). In addition, the relative viability in experiment [4] (first compound 0.04 µM) turned out to be 0.337; in experiment [4] (first compound 0.4 µM), 0.278; in experiment [4] (first compound 1.265 µM), 0.207; in experiment [4] (first compound 4 µM) it was 0.162; in experiment [5] (first compound 0.04 µM), 0.951; in experiment [5] (first compound 0.4 µM) it was 0.785. The values for the relative viability in experiment [5] (first compound 1.265 µM) and in experiment [5] (first compound 4 µM) were 0.774 and 0.553, respectively.
